According to PubChem BioAssay (NCI):
Where “and” joins values, the source holds several entries; their conditions need not be identical. Equal entries are not always repeated.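 48-hour exposure; five concentrations; linearly interpolated endpoints. GI50 marks 50% less growth. At the TGI there is no net growth.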

Legend:
Assay in all cases: NCI-60 cell line screen, 48 h
UO-31 renal = test system: UO-31 renal
HCT-116 colon = test system: HCT-116 colon
OVCAR-3 ovarian = test system: OVCAR-3 ovarian
CAKI-1 renal = test system: CAKI-1 renal
LOX IMVI melanoma = test system: LOX IMVI melanoma
K-562 leukemia = test system: K-562 leukemia
SN12C renal = test system: SN12C renal
786-0 renal = test system: 786-0 renal
PC-3 prostate = test system: PC-3 prostate
SR leukemia = test system: SR leukemia

Row | SMILES | GI50 (UO-31 renal) | TGI (UO-31 renal) | GI50 (HCT-116 colon) | TGI (HCT-116 colon) | GI50 (OVCAR-3 ovarian) | TGI (OVCAR-3 ovarian) | GI50 (CAKI-1 renal) | TGI (CAKI-1 renal) | GI50 (LOX IMVI melanoma) | TGI (LOX IMVI melanoma) | GI50 (K-562 leukemia) | TGI (K-562 leukemia) | GI50 (SN12C renal) | TGI (SN12C renal) | GI50 (786-0 renal) | TGI (786-0 renal) | GI50 (PC-3 prostate) | TGI (PC-3 prostate) | GI50 (SR leukemia) | TGI (SR leukemia) [µM]
1 | CC(C)c1cnn2c(NCc3ccccc3)cc(NC[C@H]3CCNC[C@@H]3O)nc12 | 2 µM and 2.65 µM | 11.8 µM and 12 µM | 0.168 µM and 0.158 µM | 10.9 µM and 10.8 µM | 0.489 µM and 0.707 µM | 8.66 µM and 4.17 µM | 0.472 µM and 1.65 µM | 9.13 µM and 11.4 µM | 0.0945 µM and 0.0967 µM | 1.49 µM and 0.542 µM | 0.409 µM and 0.571 µM | 11.3 µM and > 100 µM | 0.327 µM and 0.378 µM | 10.5 µM and 6.49 µM | 0.547 µM and 0.779 µM | 12.3 µM and 12.2 µM | 0.363 µM and 0.587 µM | 6.73 µM and 10.4 µM | 0.0481 µM and 0.0623 µM | 
2 | CCOC(=O)c1cc2cc3c4c(c2oc1=O)CCCN4CCC3 |  | > 100 µM |  | 79 µM |  | 93.9 µM |  | > 100 µM |  | 62.7 µM |  | > 100 µM |  | > 100 µM |  | > 100 µM |  | 97.5 µM |  | > 100
3 | NCCSSCCN |  | > 100 µM |  | > 100 µM |  | > 100 µM |  | > 100 µM |  | > 100 µM |  | > 100 µM |  | > 100 µM |  | > 100 µM |  | > 100 µM |  | > 100
4 | O=C(/C=C/C12c3ccccc3C(c3ccccc31)C1C(=O)NC(=O)C12)c1ccc(Cl)cc1Cl (centres undefined) | 1.4 µM | 2.71 µM | 1.61 µM | 3.05 µM | 1.71 µM | 3.16 µM | 1.57 µM | 3.05 µM | 1.88 µM | 3.57 µM | 2.57 µM | 10.9 µM | 1.77 µM | 3.29 µM | 1.7 µM | 3.22 µM | 1.55 µM | 3.08 µM | 1.59 µM | 4.68
5 | O=C1c2ccccc2-[n+]2ccc3c([nH]c4ccccc43)c21 |  | 3.28 µM |  | 0.51 µM |  | 0.432 µM |  | 2.07 µM |  | 0.81 µM |  | 3.31 µM |  | 0.687 µM |  | 2.58 µM |  | 1.08 µM |  | 0.846
6 | Nc1nonc1-c1nc2cnccc2n1C1CC1 | 2.09 µM | > 25 µM | 5.62 µM | > 25 µM | 7.55 µM | > 25 µM | 1.45 µM | > 25 µM | 6.54 µM | > 18 µM | > 21 µM | > 25 µM | 7.03 µM | > 25 µM | 5.44 µM | > 25 µM | 17.7 µM | > 25 µM | 3.81 µM | 15
7 | Cc1nc(-c2ccccc2)n2nc(NCCCN3CCOCC3)ncc12 | 4.48 µM | 24.4 µM | 19.4 µM | > 25 µM | > 25 µM | > 25 µM | 6.86 µM | > 25 µM | 15.1 µM | > 25 µM | > 25 µM | > 25 µM | > 25 µM | > 25 µM | > 25 µM | > 25 µM | > 25 µM | > 25 µM | > 25 µM | > 25
8 | FC(F)(c1ccc2ncccc2c1)c1nnc2ccc(-c3ccncc3)nn12 | 19.2 µM | > 100 µM | 95.8 µM | > 100 µM | > 100 µM | > 100 µM | 25.1 µM | > 100 µM | 49.6 µM | > 100 µM | 52.7 µM | > 100 µM | 37.1 µM | > 100 µM | 69.3 µM | > 100 µM | 74.6 µM | > 100 µM | > 100 µM | > 100
9 | CS(=O)(=O)CCNCc1cc(-c2cc3c(Nc4ccc(OCc5cccc(F)c5)c(Cl)c4)ncnc3s2)cs1 | 4.52 µM | > 25 µM | 12 µM | > 25 µM | 6.82 µM | > 25 µM | 4.79 µM | > 25 µM | 5.56 µM | 16.3 µM | 6.25 µM | 17.8 µM | 15.3 µM | > 25 µM | 6.44 µM | > 18.7 µM | 13 µM | > 25 µM | 7.39 µM | > 25
10 | CCC(O)c1ccc(Br)cc1NC(=O)c1cccc(Cl)c1 (centres undefined) | 10.8 µM | > 100 µM | 14.2 µM | 46.6 µM | 20.3 µM | 71.1 µM | 10.2 µM | 51.4 µM | 9.03 µM | 25 µM | 15.6 µM | > 100 µM | 24.4 µM | > 100 µM | 33.1 µM | > 100 µM | 12.5 µM | 53.4 µM | 24 µM | 70.5
11 | COc1cc2nc(SCc3cc(OC)c(OC)c(OC)c3)n(Cc3ccccc3)c(=O)c2cc1OC | 3.9 µM | > 100 µM | 2.42 µM | > 100 µM | 2.24 µM | 8.37 µM | 3.86 µM | > 100 µM | 4.35 µM | > 100 µM | 0.875 µM | > 100 µM | 7.65 µM | > 100 µM | 5.34 µM | 27.3 µM | 3.27 µM | > 100 µM | 0.533 µM | > 22.2
